Values quoted from earlier work in patent US6797282B2, “Combination progestin oral contraceptive regimen” (Ortho-McNeil Pharmaceutical, Inc., priority 1997, dated 2004).

Test system: endometrium
Conditions: primates; Wilborn et al 1984

For C#C[C@]1(OC(C)=O)CC[C@H]2[C@@H]3CCC4=CC(=NO)CC[C@@H]4[C@H]3CC[C@@]21CC (mixture of isomers) [Norgestimate], the “effect on endometrium in comparison to other progestins” value is given as “endometrial sparing effect”.
